Tests used:
[1] = target: T1, Ubiquitin carboxyl-terminal hydrolase 30 (Homo sapiens, UniProt Q70CQ3); assay: Inhibition of human USP30 catalytic domain (57 to 517 residues) using ubiquitin-rhodamine 110 as substrate preincubated for 30 min followed by substrate addition and measured after 2 hrs by fluorescence intensity kinetic assay
T1 sequence (Q70CQ3 whole entry): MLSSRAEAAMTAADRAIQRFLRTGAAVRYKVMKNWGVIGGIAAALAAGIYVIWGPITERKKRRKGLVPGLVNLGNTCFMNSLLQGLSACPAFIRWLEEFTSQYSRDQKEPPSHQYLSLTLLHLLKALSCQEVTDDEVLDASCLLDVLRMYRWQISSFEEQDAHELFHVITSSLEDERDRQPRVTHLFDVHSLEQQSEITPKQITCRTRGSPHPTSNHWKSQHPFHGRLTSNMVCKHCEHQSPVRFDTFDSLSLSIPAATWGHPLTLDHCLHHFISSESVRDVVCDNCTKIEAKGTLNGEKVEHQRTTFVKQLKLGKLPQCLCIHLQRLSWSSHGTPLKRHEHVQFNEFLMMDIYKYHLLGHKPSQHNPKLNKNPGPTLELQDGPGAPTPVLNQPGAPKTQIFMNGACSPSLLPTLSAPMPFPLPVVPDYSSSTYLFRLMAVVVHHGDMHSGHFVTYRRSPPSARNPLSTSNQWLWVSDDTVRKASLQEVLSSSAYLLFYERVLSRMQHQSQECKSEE

[2] = target: T1, Ubiquitin carboxyl-terminal hydrolase 30; assay: Inhibition of untagged human USP30 catalytic domain (57 to 517 residues) expressed in Escherichia coli using TAMRA labeled ubiquitin peptide as substrate preincubated for 30 min followed by substrate addition and measured after 2 hrs by fluorescence polarization assay

Compound | IC50 [1] [µM] | IC50 [2] [µM]
N#CN1C[C@H]2CCN(C(=O)Nc3cc(Cl)ccc3F)[C@H]2C1 |  | 0.1 to 1
COc1cc(-c2cc(C(=O)N(C)[C@@H]3CCN(C#N)C3)on2)ccn1 | 0.1 to 1 | 
N#Cc1ccc(NC(=O)N2CC[C@@H]3CN(C#N)C[C@@H]32)c(F)c1 |  | 0.1 to 1

More lines, main results first:

IC50 [1] [µM] | Compound | IC50 [2] [µM]
1 to 10 | N#CN1C[C@H]2CCN(C(=O)N3CCc4ccccc43)[C@H]2C1 | 
0.1 to 1 | N#CN1CC[C@@H](NC(=O)c2ccc(N3CCOCC3)cc2)C1 | 

From ChEMBL document CHEMBL4418285, “1-cyano-pyrrolidine compounds as usp30 inhibitors” (2018)
